Patent publication US20260042731A1, “(2,4-DICHLOROPHENOXY)ACETIC ACID ANALOGS” (CORTEVA AGRISCIENCE LLC, priority 2022, published 2026)
Read-outs that look alike come from different tables or passages of the source.

Experiments:
[1] = tested on: Amaranthus rudis (AMATA), tall water hemp; assay: Postemergence herbicide evaluation, growth of Amaranthus rudis (AMATA); type: in vivo; conditions: Amaranthus tuberculatus, post-emergence, percent reduction in plant size relative to untreated control, read-out: Ave. AMATA; for pest or weed control at 280 g/ha: 280 g ae/ha; for pest or weed control at 560 g/ha: 560 g ae/ha
[2] = tested on: Ambrosia artemisiifolia (AMBEL), common ragweed; assay: Postemergence herbicide evaluation, growth of Ambrosia artemisiifolia (AMBEL); type: in vivo; conditions: Ambrosia artemisiifolia, post-emergence, percent reduction in plant size relative to untreated control, read-out: AVE. AMBEL; for pest or weed control at 280 g/ha: 280 g ae/ha; for pest or weed control at 560 g/ha: 560 g ae/ha
[3] = tested on: Abutilon theophrasti (ABUTH), velvetleaf; assay: Postemergence herbicide evaluation, growth of Abutilon theophrasti (ABUTH); type: in vivo; conditions: Abutilon theophrasti, post-emergence, percent reduction in plant size relative to untreated control, read-out: AVE. ABUTH; for pest or weed control at 280 g/ha: 280 g ae/ha; for pest or weed control at 560 g/ha: 560 g ae/ha
[4] = tested on: Chenopodium album (CHEAL), common lambsquarters; assay: Postemergence herbicide evaluation, growth of Chenopodium album (CHEAL); type: in vivo; conditions: Chenopodium album, post-emergence, percent reduction in plant size relative to untreated control, read-out: Ave. CHEAL; for pest or weed control at 280 g/ha: 280 g ae/ha; for pest or weed control at 560 g/ha: 560 g ae/ha
[5] = tested on: glyphosate resistant Conyza canadensis (L.) (ERICA), horseweed; assay: Postemergence herbicide evaluation, growth of Conyza canadensis (ERICA); type: in vivo; conditions: Erigeron canadensis, post-emergence, percent reduction in plant size relative to untreated control, read-out: Ave. ERICA; for pest or weed control at 280 g/ha: 280 g ae/ha; for pest or weed control at 560 g/ha: 560 g ae/ha
[6] = Volatility of compounds measured by thermogravimetric analysis (TGA); type: physicochemical
[7] = tested on: weeds (ABUTH, AMATA, AMBEL, CHEAL, ERICA); assay: Postemergence herbicide evaluation, overall average % weed control across ABUTH, AMATA, AMBEL, CHEAL, ERICA; type: in vivo; conditions: post-emergence, average over the five weeds, read-out: Overall Ave % Weed Control; for pest or weed control at 280 g/ha: 280 g ae/ha; for pest or weed control at 560 g/ha: 560 g ae/ha

Structure (SMILES): CN(NC(=O)COc1ccc(Cl)cc1Cl)C(=O)c1ccccc1 [Compound D9, N′-(2-(2,4-Dichlorophenoxy)acetyl)-N-methylbenzohydrazide]
- pest or weed control at 280 g/ha ([1]; 168 h, 7 DAA): 65%
- pest or weed control at 560 g/ha ([1]; 168 h, 7 DAA): 68%
- pest or weed control at 280 g/ha ([1]; 336 h, 14 DAA): 75%
- pest or weed control at 560 g/ha ([1]; 336 h, 14 DAA): 70%
- pest or weed control at 280 g/ha ([1]; 504 h, 21 DAA): 83%
- pest or weed control at 560 g/ha ([1]; 504 h, 21 DAA): 73%
- pest or weed control at 280 g/ha ([2]; 168 h, 7 DAA): 60%
- pest or weed control at 560 g/ha ([2]; 168 h, 7 DAA): 73%
- pest or weed control at 280 g/ha ([2]; 336 h, 14 DAA): 83%
- pest or weed control at 560 g/ha ([2]; 336 h, 14 DAA): 94%
- pest or weed control at 280 g/ha ([2]; 504 h, 21 DAA): 85%
- pest or weed control at 560 g/ha ([2]; 504 h, 21 DAA): 99%
- pest or weed control at 280 g/ha ([3]; 168 h, 7 DAA): 43%
- pest or weed control at 560 g/ha ([3]; 168 h, 7 DAA): 43%
- pest or weed control at 280 g/ha ([3]; 336 h, 14 DAA): 45%
- pest or weed control at 560 g/ha ([3]; 336 h, 14 DAA): 48%
- pest or weed control at 280 g/ha ([3]; 504 h, 21 DAA): 45%
- pest or weed control at 560 g/ha ([3]; 504 h, 21 DAA): 50%
- pest or weed control at 280 g/ha ([4]; 168 h, 7 DAA): 65%
- pest or weed control at 560 g/ha ([4]; 168 h, 7 DAA): 65%
- pest or weed control at 280 g/ha ([4]; 336 h, 14 DAA): 73%
- pest or weed control at 560 g/ha ([4]; 336 h, 14 DAA): 78%
- pest or weed control at 280 g/ha ([4]; 504 h, 21 DAA): 95%
- pest or weed control at 560 g/ha ([4]; 504 h, 21 DAA): 90%
- pest or weed control at 280 g/ha ([5]; 168 h, 7 DAA): 65%
- pest or weed control at 560 g/ha ([5]; 168 h, 7 DAA): 68%
- pest or weed control at 280 g/ha ([5]; 336 h, 14 DAA): 83%
- pest or weed control at 560 g/ha ([5]; 336 h, 14 DAA): 88%
- pest or weed control at 280 g/ha ([5]; 504 h, 21 DAA): 94%
- pest or weed control at 560 g/ha ([5]; 504 h, 21 DAA): 65%
- TGA Data (rate of weight loss, volatility) [6]: 0.2 µg/min
- pest or weed control at 280 g/ha ([7]; 168 h, 7 DAA): 60%
- pest or weed control at 560 g/ha ([7]; 168 h, 7 DAA): 63%
- pest or weed control at 280 g/ha ([7]; 336 h, 14 DAA): 72%
- pest or weed control at 560 g/ha ([7]; 336 h, 14 DAA): 75%
- pest or weed control at 280 g/ha ([7]; 504 h, 21 DAA): 80%
- pest or weed control at 560 g/ha ([7]; 504 h, 21 DAA): 75%

Structure (SMILES): C/C(C/C(C)=N/OC(=O)COc1ccc(Cl)cc1Cl)=N\OC(=O)COc1ccc(Cl)cc1Cl [Compound B6, (2,4)-Pentane-2,4-dione O,O-di(2-(2,4-dichlorophenoxy)acetyl) dioxime]
- pest or weed control at 280 g/ha ([1]; 168 h, 7 DAA): 75%
- pest or weed control at 560 g/ha ([1]; 168 h, 7 DAA): 73%
- pest or weed control at 280 g/ha ([1]; 336 h, 14 DAA): 75%
- pest or weed control at 560 g/ha ([1]; 336 h, 14 DAA): 80%
- pest or weed control at 280 g/ha ([1]; 504 h, 21 DAA): 75%
- pest or weed control at 560 g/ha ([1]; 504 h, 21 DAA): 83%
- pest or weed control at 280 g/ha ([2]; 168 h, 7 DAA): 68%
- pest or weed control at 560 g/ha ([2]; 168 h, 7 DAA): 70%
- pest or weed control at 280 g/ha ([2]; 336 h, 14 DAA): 93%
- pest or weed control at 560 g/ha ([2]; 336 h, 14 DAA): 93%
- pest or weed control at 280 g/ha ([2]; 504 h, 21 DAA): 96%
- pest or weed control at 560 g/ha ([2]; 504 h, 21 DAA): 100%
- pest or weed control at 280 g/ha ([3]; 168 h, 7 DAA): 78%
- pest or weed control at 560 g/ha ([3]; 168 h, 7 DAA): 83%
- pest or weed control at 280 g/ha ([3]; 336 h, 14 DAA): 90%
- pest or weed control at 560 g/ha ([3]; 336 h, 14 DAA): 86%
- pest or weed control at 280 g/ha ([3]; 504 h, 21 DAA): 92%
- pest or weed control at 560 g/ha ([3]; 504 h, 21 DAA): 89%
- pest or weed control at 280 g/ha ([4]; 168 h, 7 DAA): 70%
- pest or weed control at 560 g/ha ([4]; 168 h, 7 DAA): 70%
- pest or weed control at 280 g/ha ([4]; 336 h, 14 DAA): 88%
- pest or weed control at 560 g/ha ([4]; 336 h, 14 DAA): 78%
- pest or weed control at 280 g/ha ([4]; 504 h, 21 DAA): 93%
- pest or weed control at 560 g/ha ([4]; 504 h, 21 DAA): 75%
- pest or weed control at 280 g/ha ([5]; 168 h, 7 DAA): 68%
- pest or weed control at 560 g/ha ([5]; 168 h, 7 DAA): 75%
- pest or weed control at 280 g/ha ([5]; 336 h, 14 DAA): 93%
- pest or weed control at 560 g/ha ([5]; 336 h, 14 DAA): 88%
- pest or weed control at 280 g/ha ([5]; 504 h, 21 DAA): 98%
- pest or weed control at 560 g/ha ([5]; 504 h, 21 DAA): 99%
- TGA Data (rate of weight loss, volatility) [6]: 3.7 µg/min
- pest or weed control at 280 g/ha ([7]; 168 h, 7 DAA): 72%
- pest or weed control at 560 g/ha ([7]; 168 h, 7 DAA): 74%
- pest or weed control at 280 g/ha ([7]; 336 h, 14 DAA): 88%
- pest or weed control at 560 g/ha ([7]; 336 h, 14 DAA): 85%
- pest or weed control at 280 g/ha ([7]; 504 h, 21 DAA): 91%
- pest or weed control at 560 g/ha ([7]; 504 h, 21 DAA): 89%
